Several values for one entry are separate records, joined by “and”; a condition that tells them apart may be missing. Equal values may be shown once. Toxic doses and inconclusive results are not listed.
Test system: P388 leukemia ip, CD2F1 mice, survival T/C
Assay: NCI In Vivo Anticancer Drug Screen. Data for tumor model P388 Leukemia (intraperitoneal) in CD2F1 (CDF1) mice
Conditions: endpoint: median survival time, higher = longer survival
In short: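 Mice carrying the transplanted tumor received test compound or vehicle. Survival was recorded in each group, and the value is the treated-group measurement divided by that of the vehicle-treated control group.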

[1] = dose: 6.25 mg/kg/injection, schedule: Q01DX009 (ip), vehicle: other
[2] = dose: 12.5 mg/kg/injection, schedule: Q01DX009 (ip), vehicle: other
[3] = dose: 50.0 mg/kg/injection, schedule: Q01DX009 (ip), vehicle: other
[4] = dose: 100.0 mg/kg/injection, schedule: Q01DX009 (ip), vehicle: other
[5] = dose: 25.0 mg/kg/injection, schedule: Q01DX009 (ip), vehicle: saline with Tween-80
[6] = dose: 50.0 mg/kg/injection, schedule: Q01DX009 (ip), vehicle: saline with Tween-80
[7] = dose: 12.5 mg/kg/injection, schedule: Q01DX009 (ip), vehicle: saline with Tween-80
[8] = dose: 50.0 mg/kg/injection, schedule: Q01DX005 (ip), vehicle: saline with Tween-80
[9] = dose: 100.0 mg/kg/injection, schedule: Q01DX005 (ip), vehicle: saline with Tween-80
[10] = dose: 200.0 mg/kg/injection, schedule: Q01DX005 (ip), vehicle: saline with Tween-80
[11] = dose: 50.0 mg/kg/injection, schedule: Q01DX005 (ip), vehicle: saline
[12] = dose: 100.0 mg/kg/injection, schedule: Q01DX005 (ip), vehicle: saline

Compound: CCCCCCC(=O)CC(SCCO)c1ccccc1Cl (stereo not given)
- T/C (dose: 60.0 mg/kg/injection, schedule: Q01DX005 (ip), vehicle: saline with Tween-80): 92 % of control
- T/C (dose: 120.0 mg/kg/injection, schedule: Q01DX005 (ip), vehicle: saline with Tween-80): 107 % of control
- T/C (dose: 240.0 mg/kg/injection, schedule: Q01DX005 (ip), vehicle: saline with Tween-80): 114 % of control

Compound: C=NC1C=CCC=C1
- T/C (dose: 100.0 mg/kg/injection, schedule: Q04DX002 (ip), vehicle: saline with Tween-80): 112 % of control
- T/C (dose: 200.0 mg/kg/injection, schedule: Q04DX002 (ip), vehicle: saline with Tween-80): 91 % of control

Compound: C[CH2][Sn]([CH2]C)([O]c1cccccc1=O)[O]c1cccccc1=O
- T/C (dose: 100.0 mg/kg/injection, schedule: Q01DX001 (ip), vehicle: Klucel (hydroxypropylcellulose) (HPC)): 116 % of control
- T/C (dose: 200.0 mg/kg/injection, schedule: Q01DX001 (ip), vehicle: Klucel (hydroxypropylcellulose) (HPC)): 110 % of control
- T/C (dose: 400.0 mg/kg/injection, schedule: Q01DX001 (ip), vehicle: Klucel (hydroxypropylcellulose) (HPC)): 110 % of control

Compound: COc1cc2c(cc1OC)/C(=N/N=C1\CCCc3cc(OC)c(OC)cc31)CCC2
- T/C [1]: 93 % of control
- T/C (dose: 6.25 mg/kg/injection, schedule: Q01DX009 (ip), vehicle: water): 98 % of control
- T/C [2]: 92 % of control
- T/C (dose: 12.5 mg/kg/injection, schedule: Q01DX009 (ip), vehicle: water): 86 % of control
- T/C (dose: 25.0 mg/kg/injection, schedule: Q01DX009 (ip), vehicle: other): 92 % of control
- T/C (dose: 25.0 mg/kg/injection, schedule: Q01DX009 (ip), vehicle: water): 86 % of control
- T/C [3]: 90 % of control
- T/C [4]: 88 % of control
- T/C (dose: 100.0 mg/kg/injection, schedule: Q01DX009 (ip), vehicle: water): 91 % of control

Compound: O=C1NN(c2ccccc2)C(=O)/C1=C\c1ccccc1O
- T/C [5]: 100 % of control and 96 % of control
- T/C (dose: 43.75 mg/kg/injection, schedule: Q01DX005 (ip), vehicle: Klucel (hydroxypropylcellulose) (HPC)): 104 % of control
- T/C (dose: 43.75 mg/kg/injection, schedule: Q01DX009 (ip), vehicle: Klucel (hydroxypropylcellulose) (HPC)): 95 % of control
- T/C [6]: 94 % of control and 98 % of control
- T/C (dose: 87.5 mg/kg/injection, schedule: Q01DX005 (ip), vehicle: Klucel (hydroxypropylcellulose) (HPC)): 97 % of control
- T/C (dose: 100.0 mg/kg/injection, schedule: Q01DX009 (ip), vehicle: saline with Tween-80): 86 % of control and 97 % of control
- T/C (dose: 175.0 mg/kg/injection, schedule: Q01DX005 (ip), vehicle: Klucel (hydroxypropylcellulose) (HPC)): 98 % of control
- T/C (dose: 175.0 mg/kg/injection, schedule: Q01DX009 (ip), vehicle: Klucel (hydroxypropylcellulose) (HPC)): 102 % of control
- T/C (dose: 200.0 mg/kg/injection, schedule: Q01DX009 (ip), vehicle: saline with Tween-80): 86 % of control and 96 % of control
- T/C (dose: 350.0 mg/kg/injection, schedule: Q01DX005 (ip), vehicle: Klucel (hydroxypropylcellulose) (HPC)): 92 % of control
- T/C (dose: 350.0 mg/kg/injection, schedule: Q01DX009 (ip), vehicle: Klucel (hydroxypropylcellulose) (HPC)): 109 % of control
- T/C (dose: 400.0 mg/kg/injection, schedule: Q01DX009 (ip), vehicle: saline with Tween-80): 111 % of control

Compound: CC(=O)Nc1c(Cl)c(Cl)c2c(c1Cl)Cc1cc(Cl)c(Cl)cc1-2
- T/C [7]: 100 % of control
- T/C [5]: 100 % of control
- T/C [6]: 95 % of control
- T/C (dose: 100.0 mg/kg/injection, schedule: Q04DX003 (ip), vehicle: saline with Tween-80): 109 % of control
- T/C (dose: 200.0 mg/kg/injection, schedule: Q04DX003 (ip), vehicle: saline with Tween-80): 100 % of control
- T/C (dose: 400.0 mg/kg/injection, schedule: Q04DX003 (ip), vehicle: saline with Tween-80): 104 % of control

Compound: Cc1nn(-c2ccccc2)c2c1S(=O)(=O)c1ccccc1-2
- T/C [8]: 91 % of control
- T/C [9]: 89 % of control
- T/C [10]: 88 % of control

Compound: COc1ccc([N+](=O)[O-])c(OC(C)=O)c1OC
- T/C [2]: 104 % of control
- T/C [3]: 93 % of control
- T/C [4]: 89 % of control
- T/C (dose: 200.0 mg/kg/injection, schedule: Q01DX009 (ip), vehicle: other): 89 % of control

Compound: OCCN(CCO)Cc1cccc2ccccc12
- T/C [8]: 94 % of control
- T/C [9]: 94 % of control

Compound: S=C(Nc1ccc(Cl)cc1)Nc1ncccn1
- T/C (dose: 12.5 mg/kg/injection, schedule: Q01DX009 (ip), vehicle: Klucel (hydroxypropylcellulose) (HPC)): 98 % of control
- T/C (dose: 25.0 mg/kg/injection, schedule: Q01DX009 (ip), vehicle: Klucel (hydroxypropylcellulose) (HPC)): 103 % of control
- T/C (dose: 50.0 mg/kg/injection, schedule: Q01DX009 (ip), vehicle: Klucel (hydroxypropylcellulose) (HPC)): 100 % of control and 97 % of control

Compound: O=C(CCCCCCCC(=O)Nc1ccc2c(=O)c3ccccc3[nH]c2c1)Nc1ccc2c(=O)c3ccccc3[nH]c2c1
- T/C [8]: 103 % of control
- T/C [9]: 110 % of control
- T/C [10]: 92 % of control

Compound: CCN(CC)CCOC1CC(C)CCC1C(C)C (stereo not given)
- T/C [11]: 111 % of control
- T/C [12]: 100 % of control
- T/C (dose: 200.0 mg/kg/injection, schedule: Q01DX005 (ip), vehicle: saline): 100 % of control

Compound: O=[N+]([O-])c1c[nH]n2c([N+](=O)[O-])cnc12
- T/C [1]: 91 % of control
- T/C [2]: 101 % of control

Compound: CCN(CC)CCCNc1cc(OC)cc2nc3ccccc3nc12
- T/C (dose: 12.5 mg/kg/injection, schedule: Q01DX005 (ip), vehicle: saline): 104 % of control
- T/C (dose: 25.0 mg/kg/injection, schedule: Q01DX005 (ip), vehicle: saline): 104 % of control
- T/C [11]: 99 % of control and 112 % of control
- T/C [12]: 114 % of control

Compound: CCNC(=O)OCc1c(COC(=O)NCC)c(-c2ccc(Cl)c(Cl)c2)n2c1CCC2
- T/C (dose: 2.5 mg/kg/injection, schedule: Q01DX009 (ip), vehicle: distilled water + Tween-80): 152 % of control
- T/C (dose: 6.25 mg/kg/injection, schedule: Q01DX009 (ip), vehicle: saline with Tween-80): 154 % of control and 168 % of control
- T/C (dose: 10.0 mg/kg/injection, schedule: Q01DX009 (ip), vehicle: distilled water + Tween-80): 180 % of control
- T/C [7]: 166 % of control and 168 % of control and 170 % of control
- T/C (dose: 20.0 mg/kg/injection, schedule: Q01DX009 (ip), vehicle: distilled water + Tween-80): 90 % of control

Compound: Cc1ccc2nc(Nc3nc(C)cc(C)n3)[nH]c2c1
- T/C (dose: 60.0 mg/kg/injection, schedule: Q01DX005 (ip), vehicle: Klucel (hydroxypropylcellulose) (HPC)): 103 % of control
- T/C (dose: 120.0 mg/kg/injection, schedule: Q01DX005 (ip), vehicle: Klucel (hydroxypropylcellulose) (HPC)): 100 % of control
- T/C (dose: 240.0 mg/kg/injection, schedule: Q01DX005 (ip), vehicle: Klucel (hydroxypropylcellulose) (HPC)): 97 % of control

Compound: COc1cccc(CCCC(=O)O)c1
- T/C (dose: 100.0 mg/kg/injection, schedule: Q01DX009 (ip), vehicle: Klucel (hydroxypropylcellulose) (HPC)): 100 % of control
- T/C (dose: 200.0 mg/kg/injection, schedule: Q01DX009 (ip), vehicle: Klucel (hydroxypropylcellulose) (HPC)): 100 % of control
- T/C (dose: 400.0 mg/kg/injection, schedule: Q01DX009 (ip), vehicle: Klucel (hydroxypropylcellulose) (HPC)): 104 % of control
